Kd data for one substance are collected here from publication PMC4456216 (Nature structural & molecular biology, 2015).

The target in assay [1] is CBP KIX domain. As to the kind of experiment: Isothermal titration calorimetry. The arrangement: species or system mouse. The following applies: read-out: Dissociation constant (KD), CBP KIX, ITC, 25°C, 10 mM MES pH 6.5, 50 mM NaCl, CBP KIX titrated into TAD, KD from a representative experiment with standard error for fit to one-site binding model (n = 2 or 3), nd = no detectable binding under experimental conditions.

In assay [2] the target is CRY1 CC peptide. The experiment in a line: Isothermal titration calorimetry. On the set-up: species or system mouse. The following applies: read-out: Dissociation constant (KD), CRY1 CC, ITC, 25°C, 10 mM MES pH 6.5, 50 mM NaCl, CRY1 CC titrated into TAD, KD from a representative experiment with standard error for fit to one-site binding model (n = 2 or 3), nd = no detectable binding under experimental conditions.

With “BMAL1 619X: BMAL1 TAD truncation mutant that removed the C-terminal seven residues”, the Kd in assay [1] was determined as 4.44 ± 0.23 µM; in assay [2], 19.7 ± 2.57 µM.
